Reference: ChEMBL document CHEMBL4834489 (ACS Med Chem Lett, 2021)

Assays:
[1] = Clearance in human liver microsomes at 1 uM followed by NADPH addition measured up to 60 mins by LC-MS/MS analysis relative to hepatic blood flow; format: ADME, Microsome; details: read-out: CLH
[2] = Clearance in human hepatocytes at 1 uM measured up to 6 hrs by LC-MS/MS analysis relative to hepatic blood flow; format: ADME, cell-based, Hepatocyte; details: read-out: CLH

| SMILES | hepatic extraction ratio at 1 h, 1 µM [1] | hepatic extraction ratio at 6 h, 1 µM [2] |
| --- | --- | --- |
| O=C1NCCc2c1sc1ncn(Cc3nc(C[C@H](O)c4ccc(Cl)cc4)no3)c(=O)c21 | < 0.23 | 0.31 |
| Cc1c(C(=O)NCC(C)(C)O)sc2ncn(Cc3nc(C[C@H](O)c4ccc(Cl)cc4)no3)c(=O)c12 | < 0.23 | 0.18 |
| CNC(=O)c1sc2ncn(Cc3nc(C[C@H](O)c4ccc(Cl)cc4)no3)c(=O)c2c1C | < 0.23 | 0.29 |
| Cc1c(C(N)=O)sc2ncn(Cc3nc(C[C@H](O)c4cc5ccccc5o4)no3)c(=O)c12 | < 0.23 | 0.36 |
| Cc1c(C(N)=O)sc2ncn(Cc3nc(C[C@H](O)c4cc(F)cc(F)c4)no3)c(=O)c12 | < 0.23 | 0.23 |
| Cc1c(C(N)=O)sc2ncn(Cc3nc(C[C@H](O)c4ccc5c(c4)OCO5)no3)c(=O)c12 | < 0.23 | 0.24 |
| Cc1c(C(=O)NCC(F)F)sc2ncn(Cc3nc(C[C@H](O)c4ccc(Cl)cc4)no3)c(=O)c12 | 0.24 | 0.36 |
| NC(=O)c1sc2ncn(Cc3nc(C[C@H](O)c4ccc(Cl)cc4)no3)c(=O)c2c1Cl | < 0.23 | 0.39 |
| Cc1c(C(N)=O)sc2ncn(Cc3nc(C[C@H](O)c4ccc(Cl)cc4)no3)c(=O)c12 | 0.29 | 0.25 |
| CNC(=O)c1sc2ncn(Cc3nc(C[C@H](O)c4ccc5c(c4)OCO5)no3)c(=O)c2c1C | 0.29 | 0.24 |
